37 molecules from patent publication US20120277209A1, “PYRAZINE COMPOUNDS AS PHOSPHODIESTERASE 10 INHIBITORS” (Amgen Inc., priority 2009, published 2012) can be followed below.

pIC50: −log10 of the molar value.

Broadly, the pIC50 is the negative decadic logarithm of the IC50, by convention in mol/L.

For one test, the target named is PDE10 (UniProt Q9Y233). Put plainly: PDE10 enzyme inhibition, IMAP TR-FRET assay (MPDE10A7 Enzyme Activity and Inhibition). The test is classed as biochemical. To be noted: IC50 class against PDE10; read-out: IC50. The method, then:
All compounds were divided in five classes based on their IC50 values against PDE10. The range of the IC50 in each class is as follows:
An IMAP TR-FRET assay was used to analyze the enzyme activity (Molecular Devices Corp., Sunnyvale Calif.). 5 μL of serial diluted PDE10A (BPS Bioscience, San Diego, Calif.) or tissue homogenate was incubated with equal volumes of diluted fluorescein labeled cAMP or cGMP for 60 min in 384-well polystyrene assay plates (Corning, Corning, N.Y.) at room temperature. After incubation, the reaction was stopped by adding 60 μL of diluted binding reagents and was incubated for 3 hours to overnight at room temperature. The plates were read on an Envision (Perkin Elmer, Waltham, Mass.) for time resolved fluorescence resonance energy transfer. The data were analyzed with GraphPad Prism (La Jolla, Calif.).
Enzyme Inhibition. To check the inhibition profile, 5 μL of serial diluted compounds were incubated with 5 μL of diluted PDE10 enzyme (BPS Bioscience, San Diego, Calif.) or tissue homogenate in a 384-well polystyrene assay plate (Corning, Corning, N.Y.) for 30 min at room temperature. After incubation, 10 μL of diluted fluorescein labeled cAMP or cGMP substrate were added and incubated for 60 min at room temperature. The reaction was stopped by adding 60 μL of diluted binding reagents and plates were read on an Envision (Perkin Elmer, Waltham, Mass.) for time resolved fluorescence resonance energy transfer. The data were analyzed with GraphPad Prism (La Jolla, Calif.).
The tabulated IC50 data represent an average IC50 data for each compound.
On the technique in general: TR-FRET usually uses a lanthanide donor and a delayed reading to cut background.
Take `CN(C)CCOc1nccnc1Oc1ccc(C(=O)c2nc3ccccc3[nH]2)cc1` [Example 174, (1H-benzo[d]imidazol-2-yl)(4-(3-(2-(dimethylamino)ethoxy)pyrazin-2-yloxy)phenyl)methanone]: the pIC50 is 6.60 to 7.00.

For `CC(C)N1CCN(c2nccnc2Oc2ccc(Nc3nc4ccccc4s3)cc2)CC1=O` [Example 91, 4-(3-(4-(benzo[d]thiazol-2-yl-amino)phenoxy)pyrazin-2-yl)-1-isopropylpiperazin-2-one], the pIC50 was 7.00 to 7.60.

On to `O=S1(=O)CCN(c2nccnc2Oc2ccc(Nc3nc4ccccc4s3)cc2)CC1` [Example 75, N-(4-((3-(1,1-dioxido-4-thio-morpholinyl)-2-pyrazinyl)oxy)-phenyl)-1,3-benzothiazol-2-amine], for which the negative logarithm of the IC50 (pIC50) is 6.00 to 6.60.

With `CC1CN(c2nccnc2Oc2ccc(Nc3nc4ccccc4s3)cc2)CC(C)O1` (stereo not shown) [Example 74, N-(4-(3-(2,6-dimethylmorph-olino)pyrazin-2-yloxy)phenyl)-benzo[d]thiazol-2-amine], the negative logarithm of the IC50 (pIC50) is 7.00 to 7.60.

In the case of `O=C(O)c1ccc(-c2nccnc2Oc2ccc(C(=O)c3nc4ccccc4[nH]3)cc2)cc1` [Example 127, 4-(3-(4-(1H-benzo[d]imidazole-2-carbonyl)phenoxy)pyrazin-2-yl)benzoic acid], the pIC50 is above 7.60.

Regarding `COc1ncccc1-c1nccnc1Oc1ccc(C(=O)c2nc3ccccc3n2CCF)cc1` [Example 134, (1-(2-fluoroethyl)-1H-benzo[d]imidazol-2-yl)(4-(3-(2-methoxypyridin-3-yl)pyrazin-2-yloxy)phenyl)methanone], the pIC50 is above 7.60.

`COCC(=O)N1CCC(c2nccnc2Oc2ccc(C(=O)c3nc4ccccc4[nH]3)cc2)CC1` [Example 232, 1-(4-(3-(4-(1H-benzo[d]imidazole-2-carbonyl)phenoxy)pyrazin-2-yl)piperidin-1-yl)-2-methoxyethanone]: the pIC50 is above 7.60.

With `COC[C@H](C)NC(=O)c1nccnc1Oc1ccc(C(=O)c2nc3ccccc3[nH]2)cc1` [Example 256, (S)-3-(4-(1H-benzo[d]imidazole-2-carbonyl)phenoxy)-N-(1-methoxypropan-2-yl)pyrazine-2-carboxamide], the negative-log IC50 (pIC50) was 7.00 to 7.60.

Consider `N#Cc1ccc(-c2nccnc2Oc2ccc(C(=O)c3nc4ccccc4[nH]3)cc2)cc1` [Example 108, 4-(3-(4-(1H-benzo[d]imidazole-2-carbonyl)phenoxy)pyrazin-2-yl)benzonitrile], for which the pIC50 was above 7.60.

For `N#Cc1ccc(-c2nccnc2Oc2ccc(Nc3nc4ccccc4s3)cc2)cn1` [Example 142, 5-(3-(4-(benzo[d]thiazol-2-ylamino)phenoxy)pyrazin-2-yl)picolinonitrile], the pIC50 is above 7.60.

For `c1ccc2sc(Nc3ccc(Oc4nccnc4N4CCC5(CC4)OCCO5)cc3)nc2c1` [Example 99, N-(4-(3-(1,4-dioxa-8-azaspiro[4.5]-decan-8-yl)pyrazin-2-yloxy)phenyl)-benzo[d]thiazol-2-amine], the pIC50 is 7.00 to 7.60.

Take `CC(F)C(=O)N1CCC(c2nccnc2Oc2ccc(C(=O)c3nc4ccccc4[nH]3)cc2)CC1` (stereo not shown) [Example 234, 1-(4-(3-(4-(1H-benzo[d]imidazole-2-carbonyl)phenoxy)pyrazin-2-yl)piperidin-1-yl)-2-fluoropropan-1-one]: the pIC50 was above 7.60.

As for `CC(=O)OC(C)C(=O)N1CCC(c2nccnc2Oc2ccc(C(=O)c3nc4ccccc4[nH]3)cc2)CC1` (stereo not shown) [Example 238, 1-(4-(3-(4-(1H-benzo[d]imidazole-2-carbonyl)phenoxy)pyrazin-2-yl)piperidin-1-yl)-1-oxopropan-2-yl acetate], the pIC50 is above 7.60.

As for `COc1ccc(-c2nccnc2Oc2ccc(C(=O)c3nc4ccccc4[nH]3)cc2)c(OC)n1` [Example 111, (1H-benzo[d]imidazol-2-yl)(4-(3-(2,6-dimethoxypyridin-3-yl)pyrazin-2-yloxy)phenyl)methanone], the pIC50 is 7.00 to 7.60.

Staying with this test, now noted: PDE10 enzyme inhibition; average IC50 data for each compound; read-out: Average IC50.
On to `O=C(c1ccc(Oc2nccnc2Oc2ccccc2)cc1)c1nc2ccccc2[nH]1` [drawing 850], for which the pIC50 was 5.67.

Consider `O=C(c1ccc(Oc2nccnc2OCC2CCOC2)cc1)c1nc2ccccc2[nH]1` (stereo not shown) [drawing 854], for which the pIC50 is 8.25.

Regarding `CC#CCOc1nccnc1Oc1ccc(C(=O)c2nc3ccccc3[nH]2)cc1` [drawing 852], the pIC50 is 6.17.

On to `COC(=O)C1(c2nccnc2Oc2ccc(Nc3nc4ccccc4s3)cc2)CCOCC1` [drawing 871], for which the pIC50 was 8.20.

As for `OCC1CCCCN1c1nccnc1Oc1ccc(Nc2nc3ccccc3s2)cc1` (stereo not shown) [drawing 730], the pIC50 was 7.66.

As to `O=C(c1ccc(Oc2nccnc2OCCN2CCCC2)cc1)c1nc2ccccc2[nH]1` [drawing 856], the pIC50 is 6.27.

`Fc1ccc2sc(Nc3ccc(Oc4nccnc4Cl)cc3)nc2c1` [drawing 832]: the pIC50 is below 4.52.

For the molecule `N#C[C@@H]1CCN(c2nccnc2Oc2ccc(C(=O)c3nc4ccccc4[nH]3)cc2)C1` [drawing 828], the pIC50 was 8.75.

As to `Cc1ncsc1CCOc1nccnc1Oc1ccc(C(=O)c2nc3ccccc3[nH]2)cc1` [drawing 853], the negative logarithm of the IC50 (pIC50) was 8.73.

On to `O=C(c1ccc(Oc2nccnc2N2CC(O)C2)cc1)c1nc2ccccc2[nH]1`, for which the pIC50 is 8.16.

Take `COc1cnccc1-c1nccnc1Oc1ccc(C(=O)c2nc3ccccc3[nH]2)cc1` [drawing 960]: the pIC50 is 9.31.

For the molecule `O[C@@H]1CCC[C@H](c2nccnc2Oc2ccc(Nc3nc4ccccc4s3)cc2)C1` (stereo in doubt), the pIC50 is 8.63.

Turning to `O[C@H]1CCC[C@@H](c2nccnc2Oc2ccc(Nc3nc4ccccc4s3)cc2)C1` [drawing 903], the pIC50 is 8.88.

`COc1ccncc1-c1nccnc1Oc1ccc(C(=O)c2nc3ccccc3[nH]2)cc1` [drawing 990]: the pIC50 was 9.27.

Regarding `O=C(c1ccc(Oc2nccnc2C2CCSCC2)cc1)c1nc2ccccc2[nH]1` [drawing 932], the pIC50 was 8.73.

Consider `COCCOc1nccnc1Oc1ccc(C(=O)c2nc3ccccc3[nH]2)cc1` [drawing 848], for which the pIC50 is 7.54.

Take `Clc1nccnc1Oc1ccc(Nc2nc3ccccc3s2)cc1`: the pIC50 was 6.22.

For the molecule `C[C@H](F)C(=O)N1CCC(c2nccnc2Oc2ccc(Nc3nc4ccccc4s3)cc2)CC1` [drawing 979], the pIC50 is 9.81.

Consider `OC1CCN(c2nccnc2Oc2ccc(Nc3nc4ccccc4s3)cc2)CC1` [drawing 717], for which the pIC50 is 8.09.

Take `CC(=O)N1CCC[C@@H](c2nccnc2Oc2ccc(C(=O)c3nc4ccccc4[nH]3)cc2)C1` (stereo in doubt): the pIC50 is 8.53.

Staying with this test, now noted: PDE10 enzyme inhibition; chiral compounds separated from racemic mixtures; read-out: IC50.
Take `O=C1CCC[C@H](c2nccnc2Oc2ccc(Nc3nc4ccccc4s3)cc2)C1` [Example 282, (S)-3-(3-(4-(benzo[d]thiazol-2-ylamino)phenoxy)pyrazin-2-yl)cyclohexanone]: the negative-log IC50 (pIC50) was above 7.60.

Consider `O=C1CCC[C@@H](c2nccnc2Oc2ccc(Nc3nc4ccccc4s3)cc2)C1` [Example 281, (R)-3-(3-(4-(benzo[d]thiazol-2-ylamino)phenoxy)pyrazin-2-yl)cyclohexanone], for which the pIC50 was above 7.60.

As to `O=C(c1ccc(Oc2nccnc2[C@@H]2CCC[C@H](O)C2)cc1)c1nc2ccccc2[nH]1` [Example 269, (1H-benzo[d]imidazol-2-yl)(4-(3-((1R,3S)-3-hydroxycyclohexyl)pyrazin-2-yloxy)phenyl) methanone], the pIC50 is above 7.60.
